Values of other authors, collected in paper PMC5548701, “Selective targeting of melanoma using N-(2-diethylaminoethyl) 4-[^18F]fluoroethoxy benzamide (4-[^18F]FEBZA): a novel PET imaging probe” (EJNMMI Research, 2017).

How the values were obtained:
[1] = tested on: B16F1 tumor; details: cited from earlier work; for intestinal uptake: mice bearing B16F melanoma tumor; for bone uptake: 2 h
[2] = set-up: method as in PMID 27693672; details: 60–70 min; cited from earlier work

Row | Structure (SMILES) | intestinal uptake ([1]; 1 h) | F-18 uptake in B16F1 tumor ([1]; 1 h) | bone uptake [1] | uptake in mouse brain from microPET imaging [2]
1 | CCN(CC)CCNC(=O)c1ccc(F)nc1 [MEL050] | 2.1 ± 0.3 %IA/g | 8.4 ± 1.5 %IA/g | 0.58 ± 0.05 %IA/g | 1.38 ± 0.40 %IA/g
2 | CCN(CC)CCNC(=O)c1ccc([18F])cc1 [^18F-DAFBA, N-(2-diethylaminoethyl)-4-[18F]fluorobenzamide] | 3.04 ± 0.24 %IA/g | – | 0.20 ± 0.06 %IA/g | –
